Values of other authors, collected in patent US20140023701A1, “Method and Composition for Ameliorating the Effects tor a Subject Exposed to Radiation or Other Sources of Oxidative Stress” (priority 2011, published 2014).
Where two headings read alike, the source gives them in different places.

How the values were obtained:
[1] = system: Human
[2] = system: Human; remark: listed apart in the source
[3] = no observed adverse event level, most sensitive subgroup
[4] = tolerable upper intake level, daily intake

Molecule | Human NOAEL [1, 3] | Human UL (19-70 yo group) [2] | Human UL (19-70 yo group) [2, 4] | Human NOAEL ([1]; human)
O=C(O)CCCC[C@@H]1SC[C@@H]2NC(=O)N[C@@H]21 [Biotin] | 2.5 mg |  |  | 
[Ca] [Calcium] | 1500 mg | 2500 mg |  | 
Nc1nc2ncc(CNc3ccc(C(=O)N[C@@H](CCC(=O)O)C(=O)O)cc3)nc2c(=O)[nH]1 [Folate, folic acid] | 1 mg |  |  | 
[Mg] [Magnesium] | 700 mg |  | 350 mg | 
[Mn+2] [Manganese] | 10 mg | 11 mg |  | 
[Mo] [Molybdenum] | 0.35 mg |  | 2 mg | 
O=C(O)c1cccnc1 [Niacin, inositol hexanicotinate] |  |  | 35 mg | 
CC(C)(CO)[C@@H](O)C(=O)NCCC(=O)O [Pantothenic acid, d-calcium pantothenate] | 1000 mg |  |  | 
Cc1ncc(CO)c(CO)c1O.Cl [Vitamin B6, pyridoxine hydrochloride] |  | 100 mg |  | 200 mg
O=C1O[C@H]([C@@H](O)CO)C(O)=C1O [Vitamin C, ascorbic acid] | >1000 mg |  |  | 
C=C1CC[C@H](O)C/C1=C/C=C1\CCC[C@]2(C)[C@@H]([C@H](C)CCCC(C)C)CC[C@@H]12 [Vitamin D, cholecalciferol] | 800 IU |  |  | 
CC1=C(C/C=C(\C)CCC[C@H](C)CCC[C@H](C)CCCC(C)C)C(=O)c2ccccc2C1=O [Vitamin K, phytonadione] |  |  |  | 0.03 mg
Copper | 9 mg | 10 mg |  | 
Vitamin A |  | 10,000 U |  | 10,000 IU
Vitamin E |  |  | 1490 IU | 1200 IU
Zinc | 30 mg | 40 mg |  | 
chromium polynicotinate | 1 mg |  |  | 
cyanocobalamin [Vitamin B12] | 3 mg |  |  | 
